Experimental data from patent US5135938A, “Leukotriene antagonists” (SmithKline Beecham Corporation, priority 1990, dated 1992).
Structures can show the parent of a compound that is named as a salt.

The compounds below were run against T1, LTD4 induced contraction of guinea pig tracheal spiral strips (Cavia porcellus, UniProt Q2NNR5) (assay: Inhibition of leukotriene (LTD4) induced contraction of guinea pig tracheal tissues in vitro). Conditions: LTD4 concentration-response on guinea pig tracheal strips, 30 minutes pretreatment with test compound; KB from EC30 shift; current average where tested more than once; read-out: In Vitro Log K8 (-log KB, leukotriene antagonist activity) (converted).
T1 construct: Guinea pig (adult male albino Hartley strain) tracheal spiral strips; from tissue; host or cells: guinea pig trachea (adult male albino Hartley strain), spiral strips
T1 sequence (Q2NNR5 1-340): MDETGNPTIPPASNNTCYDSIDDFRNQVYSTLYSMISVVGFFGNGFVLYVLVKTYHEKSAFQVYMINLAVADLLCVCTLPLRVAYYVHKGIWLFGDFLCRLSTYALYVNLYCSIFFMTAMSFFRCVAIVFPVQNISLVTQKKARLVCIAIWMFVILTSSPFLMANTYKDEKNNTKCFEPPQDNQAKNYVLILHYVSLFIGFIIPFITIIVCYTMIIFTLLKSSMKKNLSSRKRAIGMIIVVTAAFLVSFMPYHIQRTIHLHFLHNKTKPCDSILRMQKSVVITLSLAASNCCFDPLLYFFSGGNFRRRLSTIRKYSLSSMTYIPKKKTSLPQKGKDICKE
Assay type: cell-based
Experimental: The leukotriene antagonist activity of the compounds of this invention is measured by the ability of the compounds to inhibit the leukotriene induced contraction of guinea pig tracheal tissues in vitro. The following methodology was employed:
In vitro: Guinea pig (adult male albino Hartley strain) tracheal spiral strips of approximate dimensions 2 to 3 mm cross-sectional width an 3.5 cm length were bathed in modified Krebs buffer in jacketed 10 ml tissue bath and continuously aerated with 95% O2 /5% CO2. The tissues were connected via silk suture to force displacement transducers for recording isometric tension. The tissues were equilibrated for 1 hr., pretreated for 15 minutes with meclofenamic acid […] to remove intrinsic prostaglandin responses, and then pretreated for an additional 30 minutes with either the test compound or vehicle control. A cumulative concentration-response curve for LTD4 on triplicate tissues was generated by successive increases in the bath concentration of the LTD4. In order to minimize intertissue variability, the percentage of the maximum response obtained to a reference agonist, carbachol […].
Calculations: The averages of the triplicate LTD4 concentration-response curves both in the presence and absence of the test compound were plotted on log graph paper. The concentration of LTD4 needed to elicit 30% of the contraction elicited by carbachol was measured and defined as the EC30. The -log KB value for the test compound was determined by the following equations: [formula] 2. KB =concentration of test compound/(X-1)
The antagonist activity of representative compounds of this invention is tabulated below in Table I (other data appears in the preparative examples). The -log KB values were calculated from the above test protocol. Where compounds were tested more than once, the -log KB values given herein represent the current average data.

| SMILES | Kb [nM] |
| --- | --- |
| CCCCCCCCCCCCc1ccccc1C(Sc1nnnn1CCCC(=O)O)C(=O)O (stereo not drawn) [Example 3, 2-(2-Dodecylphenyl)-2-[[1-(3-carboxypropyl)-5-tetrazolyl]thio]acetic acid] | 39.8 |
| CCCCCCCCCCCCc1ccccc1C(Sc1nnnn1CS(=O)(=O)O)C(=O)O (stereo not drawn) [Example 4, 2-(2-Dodecylphenyl)-2-[(1-sulfomethyl-5-tetrazolyl)thio]acetic acid ammonium salt hydrate] | 398 |
| CCCCCCCCCCCCc1ccccc1C(CC(=O)O)Sc1nnnn1CCCC(=O)O (stereo not drawn) [Example 6, 3-(2-dodecylphenyl)-3-[[1-(3-carboxypropyl)-5-tetrazolyl]thio]propanoicacid] | 251 |
| O=C(O)CC(Sc1nnnn1CC(=O)O)c1ccccc1CCCCCCCCc1ccccc1 (stereo not drawn) [Example 7, 3-[2-(8-Phenyloctyl)phenyl]-3-[(1-carboxymethyl-5-tetrazolyl)thio]propanoic acid] | 501 |

The remaining lines, values ahead:

| Kb [nM] | SMILES |
| --- | --- |
| 1000 | O=C(O)CCCn1nnnc1SC(CC(=O)O)c1ccccc1CCCCCCCCc1ccccc1 (stereo not drawn) [Example 8, 3-[2-(8-Phenyloctyl)phenyl]-3-[[1-(3-carboxypropyl)-5-tetrazolyl]thio]propanoic acid] |
| 316 | CCCCCCCCCCCCc1ccccc1C(SCCc1nnn[nH]1)C(=O)O (stereo not drawn) [Example 12, 2-(2-dodecylphenyl)-2-[2-(tetrazol-5-yl)ethylthio]acetic acid] |
| 100 | O=C(O)CCCn1nnnc1SC(c1ccccc1CCCCCCCCc1ccccc1)C(O)C(=O)O (stereo not drawn) [Example 13, 3-[2-(8-phenyloctyl)phenyl]-3-[[1-(3-carboxypropyl)-5-tetrazolyl]thio]-2-hydroxypropanoic acid] |
| 100 | O=C(O)Cn1nnnc1SC(c1ccccc1CCCCCCCCc1ccccc1)C(O)C(=O)O (stereo not drawn) [Example 14, 3-[2-(8-phenyloctyl)phenyl]-3-[(1-carboxymethyl-5-tetrazolyl)thio]-2-hydroxypropanoic acid] |
| 200 | CCCCCCCCCCCCc1ccccc1C(Sc1nc(C)c(C(=O)O)s1)C(=O)O (stereo not drawn) [Example 15, 2-(2-Dodecylphenyl)-2-(5-carboxy-4-methyl-2-thiazolylthio)acetic acid] |
